Laboratory results: patent EP4741420A1, “PHARMACEUTICAL COMPOSITION FOR PREVENTING OR TREATING OBESITY COMPRISING GLP ANALOGUE AS ACTIVE INGREDIENT” (priority 2023, dated 2025)
Peptide text beside a SMILES is read from it.

Experiments:
[1] = target: T1, GLP-2 (Homo sapiens, UniProt O95838); experiment: GLP-2 activity, cell-based cAMP assay (same method as Example 2); conditions: Example 5, relative to GLP-2
T1 sequence (O95838 1-553): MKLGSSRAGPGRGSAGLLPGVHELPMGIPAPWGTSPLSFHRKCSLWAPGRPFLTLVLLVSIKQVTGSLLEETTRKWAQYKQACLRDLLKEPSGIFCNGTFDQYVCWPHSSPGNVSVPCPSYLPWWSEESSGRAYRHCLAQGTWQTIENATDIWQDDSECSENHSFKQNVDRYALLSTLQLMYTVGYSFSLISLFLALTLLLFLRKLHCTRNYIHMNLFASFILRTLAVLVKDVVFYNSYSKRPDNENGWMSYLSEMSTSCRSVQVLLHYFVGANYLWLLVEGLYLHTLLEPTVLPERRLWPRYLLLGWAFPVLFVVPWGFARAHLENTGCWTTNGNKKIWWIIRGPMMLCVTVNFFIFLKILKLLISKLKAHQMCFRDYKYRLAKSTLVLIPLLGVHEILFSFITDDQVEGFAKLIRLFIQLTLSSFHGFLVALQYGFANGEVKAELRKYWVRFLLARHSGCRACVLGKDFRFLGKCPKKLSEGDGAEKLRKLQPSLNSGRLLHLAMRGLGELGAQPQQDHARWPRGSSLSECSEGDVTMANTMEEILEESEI

[2] = tested on: diet-induced obesity (DIO) mouse model; experiment: DIO mouse model QD: fat weight by tissue (Example 7-3); format: in vivo; conditions: fat weight of tissue, DIO mice, QD (once daily), 45 nmol/kg/dose
Experimental: (§1) The anti-obesity effects of SEQ ID NO: 1 prepared in Example 1, and SEQ ID NOs: 6 and 7 prepared in Example 4 were analyzed. […] In addition, as an experimental model, a diet-induced obesity (DIO) mouse model fed a high-fat diet for 3 months was used.
To analyze the anti-obesity effect, the amount of fat by tissue was measured postmortem to further confirm the efficacy of the peptide in obesity. Specifically, the epididymal, mesenteric, inguinal, and perirenal tissues of animals euthanized by decapitation were excised to measure the fat weights for each tissue and then photographed.

[3] = tested on: diet-induced obesity (DIO) mouse model; experiment: DIO mouse model QD: hepatic triglyceride measurement (Example 8-3); format: in vivo; conditions: liver tissue, DIO mice, QD (once daily), 45 nmol/kg/dose
Experimental: To measure hepatic triglyceride levels, triglycerides in liver tissue excised on the necropsy day were analyzed using a measurement kit (Biomax, Cat no. BM-TGR-100).

[4] = tested on: diet-induced obesity (DIO) mouse model; experiment: DIO mouse model QD: obesity-related factors in plasma (Example 7-4); format: in vivo; conditions: DIO mice, QD (once daily), 45 nmol/kg/dose
Experimental: (§2) In addition, after the experiment was completed, blood and serum samples were obtained from each mouse model, and biochemical tests were performed for blood glucose, total cholesterol, high-density lipoprotein (HDL), low-density lipoprotein (LDL), and triglycerides.
as §1
To analyze the anti-obesity effect, mouse plasma was obtained postmortem to measure obesity-related factors in plasma. Here, the analysis method was the same as described in Example 3.

[5] = tested on: diet-induced obesity (DIO) mouse model; experiment: DIO mouse model QD: liver weight and steatosis score, H&E (Example 8-2); format: in vivo, mice; conditions: QD (once daily), 45 nmol/kg/dose
Source text: To examine liver weight and steatosis, the liver weight elevated by obesity induction and the degree of steatosis after liver H&E staining were scored from grades 0 to 3 to compare the drug's hepatic efficacy. First, after the test was completed, the animal's liver was excised on the day of necropsy to confirm the liver efficacy of the drug. After measuring the weight of the excised liver, the intermediate lobes were frozen in liquid nitrogen for the subsequent measurement of triglycerides. The remaining portion of the liver was fixed in 10% neutral buffered formalin and subjected to histopathological examination.
For H&E analysis, the liver tissue fixed in the buffered formalin was put into an automatic tissue processor, embedded in paraffin, and then prepared into a paraffin block. Subsequently, the paraffin block was prepared into a tissue section, which was stained with hematoxylin & eosin (H&E). The stained tissue slide was observed using an optical microscope (BX61, Olympus, Japan) and photographed (DP80, Olympus, Japan).
Histopathological quantification of liver tissue was performed by scoring the degree of steatosis on H&E-stained slides from grades 0 to 3. The contents corresponding to each scoring grade are as follows.

[6] = tested on: diet-induced obesity (DIO) mouse model; experiment: DIO mouse model QD: liver Oil Red O staining (Example 8-4); format: in vivo; conditions: DIO mice, QD (once daily), 45 nmol/kg/dose
Experimental: Finally, to confirm the anti-obesity effect in the liver, liver Oil Red O staining analysis was performed. ORO staining is a staining method used to detect triglycerides (fat) in adipose-related diseases, and used to differentiate fat embolism, liposarcoma, hepatic steatosis, and lipid accumulation disorders. In addition, it can also detect lipid complexes, such as phospholipids. For ORO analysis, liver tissue was processed in 30% sucrose in a refrigerator for 3 days to prepare frozen tissue sections, which were used to prepare OCT-embedded frozen blocks. Cryosections were prepared and stained with ORO.

[7] = target: GLP-1R (Homo sapiens, UniProt P43220); experiment: GLP-1 activation: cell-based cAMP assay in GLP-1R/CHO cells
GLP-1R, sequence (P43220 24-463): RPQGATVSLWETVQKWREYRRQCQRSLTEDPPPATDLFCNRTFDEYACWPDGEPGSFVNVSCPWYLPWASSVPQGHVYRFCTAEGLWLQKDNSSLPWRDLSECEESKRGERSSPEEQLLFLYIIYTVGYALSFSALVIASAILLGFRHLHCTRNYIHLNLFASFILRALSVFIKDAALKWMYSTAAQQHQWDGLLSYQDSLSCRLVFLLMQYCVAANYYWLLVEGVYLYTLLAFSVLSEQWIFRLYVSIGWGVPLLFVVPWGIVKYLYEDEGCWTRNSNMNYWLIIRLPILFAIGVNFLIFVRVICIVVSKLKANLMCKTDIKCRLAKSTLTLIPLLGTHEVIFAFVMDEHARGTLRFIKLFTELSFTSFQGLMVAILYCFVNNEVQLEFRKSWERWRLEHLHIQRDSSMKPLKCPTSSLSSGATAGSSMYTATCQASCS

[8] = tested on: C57BL/6 DIO mice; experiment: Diet-induced obesity mouse model: blood/serum biochemical tests (Example 3); format: in vivo; conditions: after 4 weeks, 0.20 mg/kg/dose (dose from Table 3)
Experimental: Here, the body weight and food intake were measured daily.
as §2

[9] = tested on: diet-induced obesity (DIO) mouse model; experiment: DIO mouse model QD: body composition by DEXA (Example 7-2); format: in vivo, mice; conditions: QD (once daily), 45 nmol/kg/dose
Experimental: as §1
To analyze the anti-obesity effect, body composition analysis was conducted using Dual Energy X-ray Absorptiometry (DEXA). The DEXA imaging system (VET DXA iNSiGHT) is for measuring the bone density and body fat of an experimental animal through dual X-ray transmission, and after the completion of experimental material administration, DEXA fat mass and muscle mass were measured for each individual. Accordingly, body weight was categorized into BMC, lean, and fat, and the fat reduction was analyzed to provide a more objective assessment of the anti-obesity effect according to Example 7-1.

For CCCCCCCCCCCCCCCC(=O)N[C@@H](CCC(=O)NCCCC[C@H](NC(=O)[C@H](CCCCN)NC(=O)[C@H](CC(=O)O)NC(=O)[C@@H](NC(=O)[C@@H](NC(=O)[C@H](CCCCN)NC(=O)[C@@H](NC(=O)[C@H](CCC(N)=O)NC(=O)[C@@H](NC(=O)[C@H](CC(C)C)NC(=O)[C@H](Cc1c[nH]c2ccccc12)NC(=O)[C@H](CC(N)=O)NC(=O)[C@@H](NC(=O)[C@H](Cc1ccccc1)NC(=O)[C@H](CC(=O)O)NC(=O)[C@H](CCCNC(=N)N)NC(=O)[C@H](C)NC(=O)[C@H](C)NC(=O)[C@H](CC(C)C)NC(=O)[C@H](C)NC(=O)[C@H](CC(=O)O)NC(=O)[C@H](CC(C)C)NC(=O)[C@H](Cc1ccc(O)cc1)NC(=O)[C@@H](NC(=O)[C@H](CO)NC(=O)[C@H](CC(C)C)NC(=O)[C@H](CC(=O)O)NC(=O)[C@H](CO)NC(=O)[C@@H](NC(=O)[C@H](Cc1ccccc1)NC(=O)[C@@H](NC(=O)CNC(=O)[C@H](CCC(=O)O)NC(=O)CNC(=O)[C@@H](N)Cc1c[nH]cn1)[C@@H](C)O)[C@@H](C)O)[C@@H](C)O)[C@@H](C)CC)[C@@H](C)CC)[C@@H](C)O)[C@@H](C)CC)[C@@H](C)O)C(=O)O)C(=O)O [HU020K2FA] (HELM PEPTIDE1{H.G.E.G.T.F.T.S.D.L.S.T.Y.L.D.A.L.A.A.R.D.F.I.N.W.L.I.Q.T.K.I.T.D.K.K}|PEPTIDE2{[CCCCCCCCCCCCCCCC(=O)[*:2]].[gGlu]}$PEPTIDE1,PEPTIDE2,35:R3-2:R2$$$V2.0; N-terminus and C-terminus assumed), the “GLP-2 activity Compared to GLP-2” value [1] was ~ 0.02%, the Epididymal [2] was 1.71±0.16 and the Inguinal [2] was 2.37±0.21. The Mesentric [2] was 0.74±0.21, the Perirenal [2] was 0.33±0.08 and the “Liver TG levels (nmol/µ)” value [3] was 0.81±0.11 nmol/µ. The “HbA1c (%)” value ([4]; blood) was 4.39±0.21%, the “GLU” value ([4]; plasma) was 209.2 ± 9.3 mg/dL and the “HDL” value ([4]; plasma) was 100.4 ± 9.3 mg/dL. For the same compound, the “LDL” value ([4]; plasma) was 8.9 ± 9.3 mg/dL, the “TCHO” value ([4]; plasma) was 198.6 ± 24.3 mg/dL and the “TG” value ([4]; plasma) was 75.1 ± 19.4 mg/dL. The Liver weight ([5]; DIO mice) was 1.58±0.10, the “Hepatic steatosis test (Score 0~3)” value ([5]; H&E, mean of grades 0 to 3, DIO mice) was 0.97±0.47 and the “ORO positive area (%)” value [6] was 1.41±0.66%. The “GLP-1 activity Compared to GLP-1 (Exendin-4)” value ([7]; Example 5, relative to Exendin-4) was 23.6%, the “Average (n=4) Relative to GLP-1 (Exendin-4) %” value ([7]; GLP-1R/CHO cells, cAMP, relative to Exendin-4 (Example 2)) was 63.4±29.4% and the “Blood glucose” value [8] was 192.0 ± 20.2 mg/dL. For the same compound, the “High-density lipoprotein” value [8] was 76.0 ± 4.0 mg/dL, the “Low-density lipoprotein” value [8] was 9.8 ± 1.5 mg/dL and the “Toal cholesterol” value [8] was 134.8 ± 10.7 mg/dL. The “Triglyceride” value [8] was 13.6 ± 4.8 mg/dL, the “Fat” value ([9]; DEXA, DIO mice) was 9.6 ± 1.0 g and the “Lean” value ([9]; DEXA, DIO mice) was 26.5 ± 1.7 g. The “Weight” value ([9]; Table 9, DIO mice) was 37.5 ± 2.6 g and the “Weight (%) (Normalized to DIO vehicle)” value ([9]; Table 9, DIO mice) was 80.3±4.4%.
